Several values for one entry are separate records, joined by “and”; a condition that tells them apart may be missing. Identical values can stand only once. Marks after values point to notes of the source that are not given here.
Experiments:
[1] = system: ao10/17 human ovarian cancer; experiment: ao10/17 human ovarian cancer xenograft in nude mice (Example 4); format: in vivo; details: 20 mg/kg iv x7 qd; 0 d (beginning)
[2] = system: purified bovine brain tubulin; experiment: In vitro microtubule assembly assay with pure (MAP-free) tubulin, light scattering OD400; format: biochemical
Method: Microtubule Assembly Assays. Microtubule seeds were synthesized by incubating purified bovine brain tubulin with 1 mM GTP, 10% glycerol and 10% DMSO at 35° C. for 30 minutes, followed by shearing by passing the assembled microtubules 6 times through a 27 gauge needle. Microtubule assembly was assayed by adding 27.5 ul of microtubule seeds to spectrophotometer cuvettes (maintained at 35° C.) containing 247.5 ul purified bovine brain tubulin in a PEM-100 buffer (100 mM Pipes pH=6.8, 1 mM […], 1 mM MgSO4) supplemented with 1 mM GTP (and drug where applicable) and monitoring the OD400 for 2 hours. Since the compounds are dissolved in DMSO and DMSO can have a significant effect on microtubule assembly, DMSO was added to all cuvettes so as to equal the largest volume of drug added to reactions. It should be noted that the initial velocity of the microtubule assembly reactions is so fast that one can not always catch the initial rise on the light scattering profile because it is occurring while samples are being prepared. However, all samples start at the same optical density, since they are identical with the exception of the drug being introduced.

[3] = system: HCT-8 human colon cancer; experiment: HCT-8 human colon cancer xenograft in nude mice (Example 3); format: in vivo; details: for tumor inhibition rate %: vs solvent control
Excerpt: Both male and female mice were used. […] Test control. […] Preparation and Administration of Test Compounds. […] For human tumor xenograft model, all used materials, including animal food, animal cage, supporting materials and apparatus contacted by animals, were high-pressure sterilized. Nude mice were maintained in laminar flow shelves under SPF condition. After tumor transplantation, mouse weight and tumor size in each compound dosage group were dynamically monitored and plotted.

[4] = system: A549 human lung cancer cells; experiment: Apoptosis: Annexin V-Cy3 / 6-CFDA staining of A549 cells; format: cell-based; details: 1 uM, 24 hrs
Method: The cells were incubated with the drugs for 24 hours and then washed 2× with PBS and 3× with binding buffer (10 mM HEPES, pH 7.5, 140 mM NaCl, 2.5 mM CaCl2). […] The cells were gently washed 3× in 1× binding buffer, mounted, viewed under immunofluorescent microscope and imaged using an attached CCD camera. Note that live cells show staining only with 6-CFDA (green), while necrotic cells will stain only with Annexin V-Cy3 (red). Cells starting the apoptotic process will stain both with AnnexinV-Cy3 and 6-CFDA.

[5] = system: mouse Lewis lung cancer; experiment: In vivo antitumor efficacy, mouse Lewis lung cancer model, Example 3 (ACEA100108); details: for Inhibition rate (%): vs solvent control
Method: For human tumor xenograft models, cancer cells were passed twice in vivo before being transplanted into the nude mice for the study. Cultured human cancer cells in flask were first xenograft-transplanted in immunodeficient nude mice. After the cancer cells grew to a tumor of certain sizes in the nude mice, the tumor was removed form the nude mice and tumor tissues were dissected. The cell suspensions were prepared from the dissected tumor tissue and transplanted back to immunodeficient nude mice again (i.e. the second passage of cancer cells in human cancer xenograft-transplanted model). After the cancer cells grew to certain size, the tumor was removed from nude mice and the tumor tissues were dissected. The cell suspensions were prepared from dissected tissues and were used for the study of human cancer xenograft models described here.
Both male and female mice were used. However, for each experiment, animals of same sex were used. For the mouse transplanted tumor model, the numbers of animals tested were as follows: 10 for each dose group, 10 for positive control group and 20 for negative control group. For human tumor xenograft model, the numbers of animals tested were as follows: 6 for each dose group, 6 for positive control group and 12 for negative control group.
Test control. For negative control, each mouse was administered intravenously with the solvent only having the same volume and same concentration as those used in high dose ACEA100108 test, once a day, for 7 consecutive days. […] In a reference group, DBTS was administered intravenously at 50 mg/kg, once a day for 7 consecutive days.
Preparation and Administration of Test Compounds. […] Each time before use, this solution was diluted in normal saline to achieve desired ACEA100108 concentrations. Each mouse (about 20 g in weight) was administered intravenously with the compound solution of 0.5 mL at a controlled injection speed of 0.5 ml/0.5 min. 24 hrs after the tumor transplantation, intravenous injections of compound solutions into carrier mice were performed once a day, for consecutive 7 or 10 days.
Preparation of Tumor Cells for Transplantation and Determination of Compound Efficacy. To prepare the cancer cells for mouse Lewis lung cancer model, human breast cancer xenograft model and human colon cancer xenograft model, the fast growing tumors were first removed from the transplanted tumor mice. The tumor tissues were dissected and tumor cell suspensions were prepared in normal saline to have a concentration of 2-4×10^7 cells/ml. 0.2 ml of cell suspension was subcutaneously injected into the axillary region (right-side) of each mouse. […] Between two and four weeks after transplantation, mice were sacrificed and the transplanted tumors were removed from experimental mice.

[6] = 8 mg/kg/d iv x7 qd, 7 day after transplantation
[7] = 20 mg/kg/d iv x7 qd, 7 day after transplantation
[8] = 20 mg/kg/d iv x7 qd, 25 d (end)
[9] = 50 mg/kg/d iv x7 qd, 7 day after transplantation
[10] = 50 mg/kg/d iv x7 qd, 25 d (end)

Fc1ccc(CSSSCc2ccc(F)cc2)cc1 [ACEA100108, Di(p-fluorobenzyl)trisulfide]
Body weight of mice [1]: 17.2 g and 17.2 ± 1.2 g | Effect on extent of microtubule assembly ([2]; 27 uM): marked inhibitory effect | Effect on microtubule assembly ([2]; lower dosages): minimal effects upon microtubule assembly | TV inhibition rate % T/C ([3]; 8 mg/kg/d iv x7 qd): 55.73% | Tumor weight ([3]; 8 mg/kg/d iv x7 qd): 1.30 ± 0.23 g | Mouse Body weight ([3]; 8 mg/kg/d iv x7 qd, 0 Day (beginning)): 18.8 g and 18.8 ± 0.8 g | Mouse Body weight ([3]; 8 mg/kg/d iv x7 qd, 7 d): 19.7 ± 0.8 g | Mice with palpable tumor / total mice [3, 6]: 6/6†† | Tumor volume (cm^3) [3, 6]: 0.01 cm^3 | Mouse Body weight ([3]; 8 mg/kg/d iv x7 qd, 14 d): 21.3 ± 1.2 g | Tumor volume (cm^3) ([3]; 8 mg/kg/d iv x7 qd, 14 d): 0.166 ± 0.05 cm^3 | Mouse Body weight ([3]; 8 mg/kg/d iv x7 qd, 21 d): 21.8 ± 1.2 g | Tumor volume (cm^3) ([3]; 8 mg/kg/d iv x7 qd, 21 d): 0.379 ± 0.04 cm^3 | Mouse Body weight ([3]; 8 mg/kg/d iv x7 qd, 25 d (end)): 22.5 g and 22.5 ± 1 g | Tumor volume (cm^3) ([3]; 8 mg/kg/d iv x7 qd, 25 d (end)): 0.870 cm^3 and 0.87 ± 0.15 cm^3 | tumor inhibition rate % ([3]; 8 mg/kg/d iv x7 qd): 15.03% | TV inhibition rate % T/C ([3]; 20 mg/kg/d iv x7 qd): 41.89% | Tumor weight ([3]; 20 mg/kg/d iv x7 qd): 1.10 ± 0.23 g | Mouse Body weight ([3]; 20 mg/kg/d iv x7 qd, 0 Day (beginning)): 18.5 g and 18.5 ± 1 g | Mouse Body weight ([3]; 20 mg/kg/d iv x7 qd, 7 d): 19.5 ± 1 g | Mice with palpable tumor / total mice [3, 7]: 6/6†† | Tumor volume (cm^3) [3, 7]: 0.01 cm^3 | Mouse Body weight ([3]; 20 mg/kg/d iv x7 qd, 14 d): 20.7 ± 1 g | Tumor volume (cm^3) ([3]; 20 mg/kg/d iv x7 qd, 14 d): 0.122 ± 0.04 cm^3 | Mouse Body weight ([3]; 20 mg/kg/d iv x7 qd, 21 d): 21.8 ± 1.2 g | Tumor volume (cm^3) ([3]; 20 mg/kg/d iv x7 qd, 21 d): 0.317 ± 0.05 cm^3 | Mouse Body weight [3, 8]: 22.5 g and 22.5 ± 1 g | Tumor volume (cm^3) [3, 8]: 0.654 cm^3 and 0.654 ± 0.09 cm^3 | tumor inhibition rate % ([3]; 20 mg/kg/d iv x7 qd): 28.10% | TV inhibition rate % T/C ([3]; 50 mg/kg/d iv x7 qd): 33.63% | Tumor weight ([3]; 50 mg/kg/d iv x7 qd): 0.832 ± 0.10 g | Mouse Body weight ([3]; 50 mg/kg/d iv x7 qd, 0 Day (beginning)): 18.3 g and 18.3 ± 1 g | Mouse Body weight ([3]; 50 mg/kg/d iv x7 qd, 7 d): 17.7 ± 1.2 g | Mice with palpable tumor / total mice [3, 9]: 6/6†† | Tumor volume (cm^3) [3, 9]: 0.01 cm^3 | Mouse Body weight ([3]; 50 mg/kg/d iv x7 qd, 14 d): 17.8 ± 2.3 g | Tumor volume (cm^3) ([3]; 50 mg/kg/d iv x7 qd, 14 d): 0.112 ± 0.02 cm^3 | Mouse Body weight ([3]; 50 mg/kg/d iv x7 qd, 21 d): 19.5 ± 1.6 g | Tumor volume (cm^3) ([3]; 50 mg/kg/d iv x7 qd, 21 d): 0.236 ± 0.02 cm^3 | Mouse Body weight [3, 10]: 20.3 g and 20.3 ± 1 g | Tumor volume (cm^3) [3, 10]: 0.525 cm^3 and 0.525 ± 0.14 cm^3 | tumor inhibition rate % ([3]; 50 mg/kg/d iv x7 qd): 45.62% | Annexin V staining (apoptosis) [4]: strong staining of Annexin V | Animal No. beginning/end (survival) ([5]; 6.25 mg/kg/d iv x7 qd): 10/10 | Animal weight (g) beginning ([5]; 6.25 mg/kg/d iv x7 qd): 20.3 g | Animal weight (g) end ([5]; 6.25 mg/kg/d iv x7 qd): 24.4 g | Tumor weight ([5]; 6.25 mg/kg/d iv x7 qd): 1.78 ± 0.24 g | Inhibition rate (%) ([5]; 6.25 mg/kg/d iv x7 qd): 34.32% | Animal No. beginning/end (survival) ([5]; 25 mg/kg/d iv x7 qd): 10/10 | Animal weight (g) beginning ([5]; 25 mg/kg/d iv x7 qd): 20.1 g | Animal weight (g) end ([5]; 25 mg/kg/d iv x7 qd): 24.2 g | Tumor weight ([5]; 25 mg/kg/d iv x7 qd): 1.21 ± 0.22 g | Inhibition rate (%) ([5]; 25 mg/kg/d iv x7 qd): 55.35% | Animal No. beginning/end (survival) ([5]; 100 mg/kg/d iv x7 qd): 10/8 | Animal weight (g) beginning ([5]; 100 mg/kg/d iv x7 qd): 20.6 g | Animal weight (g) end ([5]; 100 mg/kg/d iv x7 qd): 23.4 g | Tumor weight ([5]; 100 mg/kg/d iv x7 qd (text: administered only 5 times because of toxicity)): 1.08 ± 0.17 g | Inhibition rate (%) ([5]; 100 mg/kg/d iv x7 qd (text: only 5 times because of toxicity)): 60.15%

Cc1cccc(CSSSCc2cccc(C)c2)c1 [ACEA100116, di(m-methylbenzyl)trisulfide]
Effect on microtubule assembly ([2]; 9 uM and 27 uM): promotes microtubule assembly
